Measured values taken from ChEMBL document CHEMBL1128010, “Novel HO-DPAT (hydroxy-2-dipropylaminotetralin) isomers: Stereoselective synthesis and receptor binding studies” (Bioorg Med Chem Lett, 1994).

Assays:
Assay type in all cases: cell membranes, Striatum, Membrane
D(1A) dopamine receptor = D(1A) dopamine receptor (Rattus norvegicus, UniProt P18901); test: Compound was evaluated for its affinity to Dopamine receptor D1 labelled with [3H]-SCH- 23390 in rat striatal membranes
D(2) dopamine receptor [1] = target: T1, D(2) dopamine receptor (Rattus norvegicus, UniProt P61169); test: Compound was evaluated for its affinity to Dopamine receptor D2 labelled with [3H]spiroperidol in rat striatal membranes
D(2) dopamine receptor [2] = target: T1, D(2) dopamine receptor; test: Compound was evaluated for its affinity to Dopamine receptor D2 labelled with [3H]pramipexole in rat striatal membranes

T1 sequence (P61169 whole entry): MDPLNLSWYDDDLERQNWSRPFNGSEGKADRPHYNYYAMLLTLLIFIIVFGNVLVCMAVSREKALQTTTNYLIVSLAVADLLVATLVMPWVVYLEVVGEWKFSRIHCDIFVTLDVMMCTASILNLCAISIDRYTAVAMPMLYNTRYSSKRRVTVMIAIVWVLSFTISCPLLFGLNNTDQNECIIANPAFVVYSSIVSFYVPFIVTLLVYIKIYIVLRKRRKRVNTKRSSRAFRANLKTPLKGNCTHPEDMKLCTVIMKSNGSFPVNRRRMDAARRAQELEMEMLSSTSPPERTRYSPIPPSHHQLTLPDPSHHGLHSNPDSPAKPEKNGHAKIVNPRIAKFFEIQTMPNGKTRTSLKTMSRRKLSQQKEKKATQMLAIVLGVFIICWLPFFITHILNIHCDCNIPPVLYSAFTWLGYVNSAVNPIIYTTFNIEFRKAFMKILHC
Chain of D(1A) dopamine receptor (P18901 whole entry): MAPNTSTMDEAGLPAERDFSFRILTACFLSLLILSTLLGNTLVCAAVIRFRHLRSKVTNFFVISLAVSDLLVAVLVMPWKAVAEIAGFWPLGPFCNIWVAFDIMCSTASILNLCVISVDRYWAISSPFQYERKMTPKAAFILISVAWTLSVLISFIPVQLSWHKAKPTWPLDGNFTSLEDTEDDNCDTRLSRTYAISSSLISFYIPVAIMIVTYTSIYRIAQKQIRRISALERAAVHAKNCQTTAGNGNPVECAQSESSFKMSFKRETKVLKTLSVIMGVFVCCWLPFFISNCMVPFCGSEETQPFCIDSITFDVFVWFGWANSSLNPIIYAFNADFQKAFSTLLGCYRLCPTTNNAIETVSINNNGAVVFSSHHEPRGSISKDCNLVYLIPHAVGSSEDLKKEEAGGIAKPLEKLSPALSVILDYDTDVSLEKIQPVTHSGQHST

Structure (SMILES)	Ki (D(1A) dopamine receptor) [µM]	Ki (D(2) dopamine receptor [1]) [µM]	Ki (D(2) dopamine receptor [2]) [µM]
CCCN(CCC)C1Cc2ccccc2[C@H](O)C1 (stereo partly specified)	> 50	13.9	0.0357
CCCN(CCC)C1Cc2ccccc2[C@@H](O)C1 (stereo partly specified)	> 50	13	0.262
